Laboratory results published in patent US20230109717A1 (GAIA BioMedicine Inc., priority 2020, published 2023).
“Also recorded” adds a separate entry of the source.

Columns and labels:
K562 cells = assay: Cytotoxic activity rate (% Lysis) of freeze-thawed highly active NK cells against K562 cells; assay type: cell-based; conditions: for Activity: Exmp. 7, collect. method 2
Experimental: Cytotoxic activity can be expressed as the percentage of target cells killed by effector cells, and is calculated in accordance with the following equation.
(Cell death observed in co-culture with effector cells−Spontaneous cell death (negative control))/(Maximum cell death (positive control)−Spontaneous cell death (negative control))×100
For the measurement of cytotoxic activity, a group of the K562 cells reacted with the NK cells, a group consisting solely of the K562 cells as a negative control, and a group of the K562 cells fixed with 10% formalin as a positive control were prepared.
After incubation for the times indicated for the groups, the cells were collected, and prepared at a density of 2×10^6 cells/mL in 10% FBS/RPMI 1640.
The K562 cells (human chronic myelogenous leukemia cell line) were suspended in serum-free RPMI 1640 medium, stained with PKH26 Red Fluorescent Cell Linker Kit (Sigma, PKH26GL-1KT), and finally prepared at a density of 2×10^6 cells/mL in 10% FBS/RPMI 1640.
The NK cells and K562 cells were added and mixed in wells of 96-well plate (IWAKI, 4870-800SP) at a cell ratio of 1:1, and allowed to react at 37° C. for 2 hours under 5% CO2. After the reaction, the plate was centrifuged (500×g, 5 minutes), and the supernatant was removed. Then, a 7-AAD solution diluted with PBS was added to the cells to suspend the cells, and the suspension was incubated at room temperature for 20 minutes. […]
For the measurement of cytotoxic activity, a group of the NK cells reacted with the K562 cells, a group solely consisting of the K562 cells as a negative control, and a group of the K562 cells fixed with 10% formalin as a positive control were prepared.
The cells were thawed and diluted by the method described above, and a necessary amount of the cells were taken on the basis of the number of viable cells at the time of freezing, and then prepared at a density of 2×10^6 cells/mL in 10% FBS/RPMI 1640.
The K562 cells were suspended in serum-free RPMI 1640 medium, stained with PKH26 Red Fluorescent Cell Linker Kit, and then prepared at a density of 2×10^6 cells/mL in 10% FBS/RPMI 1640. […]
For the measurement of cytotoxic activity, a group of NK cells reacted with K562 cells, a group of K562 cells only as a negative control, and a group of K562 cells fixed with 10% formalin as a positive control were prepared. […]
(9-2) Cytotoxic activity was measured in the same manner as described in the section of (9-1), but after thawing and dilution, the cells were left to stand for up to 6 hours, and cytotoxic activity was measured by the method described in the section b) mentioned above at the time points of 2, 5, and 6 hours. In detail, the NK cells and K562 cells were added to each well of a 96-well plate (IWAKI, 4870-800SP) at a cell ratio of 1:1, mixed, and then allowed to react at 37° C. for 2 hours under 5% CO2.

SKOV3 sphere = assay: Evaluation of thawed highly active NK cells in a solid tumor model (3D killing assay); assay type: cell-based, human; conditions: added before freezing at 800 μM (preferable between 2,400 μM and 267 μM)
Experimental: To one of SKOV3 sphere inoculated beforehand in each well of a […] plate, 50 μL of the prepared NK cells were added, and allowed to react for 4 days at 37° C. under 5% CO2. Then, the cells were detached with Accutase, collected, and cultured in the RPMI medium on a 24-well plate for expansion. After 17 days of the expansion culture at 37° C. under 5% CO2, the cells were fixed with 4% PFA, stained with DAPI, and observed under a fluorescence microscope (BZ-9000, KEYENCE), and BZ-II Analysis Application was used to quantify the area of SKOV3 that was not injured by the NK cells.
The SKOV3 cells (human ovarian cancer cell line) were prepared at a density of 3×10^4 cells/mL in 10% FBS/RPMI 1640, and inoculated onto a 96-well plate in an amount of 3×10^3 cells/100 μL per well. Spheres were prepared by incubating the cells at 37° C. for 3 days under 5% CO2.

Which results are given for `C[C@H](CCC(=O)NCCS(=O)(=O)O)[C@H]1CC[C@H]2[C@@H]3[C@@H](O)C[C@@H]4C[C@H](O)CC[C@]4(C)[C@H]3CC[C@]12C` [TUDCA, tauroursodeoxycholic acid dihydrate]?
Activity (K562 cells; pretreatment KBM + 266 μM TUDCA 2 h, thawing PlasmaLyte + IL-2, R.T. 1 h): A (A means 70% or higher); Activity (K562 cells; pretreatment KBM + 266 μM TUDCA 2 h, thawing PlasmaLyte + IL-2, R.T. 1 h, then KBM 2 h): A (A means 70% or higher); Activity (K562 cells; pretreatment KBM + 266 μM TUDCA 2 h, thawing PlasmaLyte + IL-2, R.T. 3 h): A (A means 70% or higher); Activity (K562 cells; pretreatment KBM + 266 μM TUDCA 2 h, thawing PlasmaLyte R.T. 1 h): A (A means 70% or higher); Activity (K562 cells; pretreatment KBM + 266 μM TUDCA 2 h, thawing PlasmaLyte R.T. 1 h, then KBM 2 h): A (A means 70% or higher); Activity (K562 cells; pretreatment KBM + 266 μM TUDCA 2 h, thawing PlasmaLyte R.T. 3 h): A (A means 70% or higher); Activity (K562 cells; pretreatment KBM + 800 μM TUDCA 2 h, thawing PlasmaLyte + IL-2, R.T. 1 h): A (A means 70% or higher); Activity (K562 cells; pretreatment KBM + 800 μM TUDCA 2 h, thawing PlasmaLyte + IL-2, R.T. 1 h, then KBM 2 h): A (A means 70% or higher); Activity (K562 cells; pretreatment KBM + 800 μM TUDCA 2 h, thawing PlasmaLyte + IL-2, R.T. 3 h): A (A means 70% or higher); Activity (K562 cells; pretreatment KBM + 800 μM TUDCA 2 h, thawing PlasmaLyte R.T. 1 h): A (A means 70% or higher); Activity (K562 cells; pretreatment KBM + 800 μM TUDCA 2 h, thawing PlasmaLyte R.T. 1 h, then KBM 2 h): A (A means 70% or higher); Activity (K562 cells; pretreatment KBM + 800 μM TUDCA 2 h, thawing PlasmaLyte R.T. 3 h): A (A means 70% or higher); Activity (K562 cells; pretreatment KBM + 2400 μM TUDCA 2 h, thawing PlasmaLyte + IL-2, R.T. 1 h): A (A means 70% or higher); Activity (K562 cells; pretreatment KBM + 2400 μM TUDCA 2 h, thawing PlasmaLyte + IL-2, R.T. 1 h, then KBM 2 h): A (A means 70% or higher); Activity (K562 cells; pretreatment KBM + 2400 μM TUDCA 2 h, thawing PlasmaLyte + IL-2, R.T. 3 h): A (A means 70% or higher); Activity (K562 cells; pretreatment KBM + 2400 μM TUDCA 2 h, thawing PlasmaLyte R.T. 1 h): A (A means 70% or higher); Activity (K562 cells; pretreatment KBM + 2400 μM TUDCA 2 h, thawing PlasmaLyte R.T. 1 h, then KBM 2 h): A (A means 70% or higher); Activity (K562 cells; pretreatment KBM + 2400 μM TUDCA 2 h, thawing PlasmaLyte R.T. 3 h): A (A means 70% or higher); Cytotoxic activity of frozen and thawed highly active NK cells (K562 cells; pretreatment 2 hours, 10 to 810 μM, Plasma-Lyte A after thawing, 1 and 3 hours, K562, E:T 2:1, 2 hours, Example 6, dihydrate): Improvement of the cytotoxic activity; also recorded: improved in a TUDCA concentration-dependent manner; Killing activity against the solid tumor model (SKOV3 sphere): higher killing activity
